Experimental data: US7994176B2, “Inhibitors of 11-beta-hydroxysteroid dehydrogenase 1” (Eli Lilly and Company, priority 2006, dated 2011)

Experiments:
11β-HSD1 = biological target: T1, 11β-HSD1 (Homo sapiens, UniProt P28845); assay: Human aortic smooth muscle cell assay; type: cell-based; conditions: primary human AoSMC, hTNFα-induced 11β-HSD1, cortisol formed from cortisone
T1 construct: hTNFα to induce expression of 11β-HSD1; endogenous in cells; host or cells: primary human aortic smooth muscle cells (AoSMC), induced with hTNFα
Method: Human Aortic Smooth Muscle Cell Assay
Primary human aortic smooth muscle cells (AoSMC) are cultured in 5% FBS growth medium to a passage number of 6, then pelleted by centrifugation and resuspended at a density of 9×10^4 cells/mL in 0.5% FBS assay medium containing 12 ng/mL hTNFα to induce expression of 11β-HSD1. Cells are seeded into 96-well tissue culture assay plates at 100 μL/well (9×10^3 cells/well) and incubated for 48 hours at 37° C., 5% CO2. Following induction, cells are incubated for 4 hours at 37° C., 5% CO2 in assay medium containing test compounds then treated with 10 μL/well of 10 μM cortisone solubilized in assay medium, and incubated for 16 hours at 37° C., 5% CO2. Medium from each well is transferred to a plate for subsequent analysis of cortisol using a competitive fluorescence resonance time resolved immunoassay. […] Higher levels of free cortisol result in diminishing energy transfer from the Europium-IgG to the APC-cortisol complex resulting in less APC fluorescence. Fluorescent intensities for Europium and APC are measured using a LJL Analyst AD. Europium and APC […] is measured using 360 nm excitation and 615 nm and 650 nm emission filters respectively. […] Fluorescent intensities measured for APC are modified by dividing by the Eu fluorescence (APC/Eu). […]

cortisone conversion = assay: Acute in vivo cortisone conversion assay; conditions: male C57BL/6 mice, oral, cortisone challenge 16 hours post dose, serum cortisol
Method: Acute In Vivo Cortisone Conversion Assay
In general, compounds are dosed orally into mice, the mice are challenged with a subcutaneous injection of cortisone at a set timepoint after compound injection, and the blood of each animal is collected some time later. Separated serum is then isolated and analyzed for levels of cortisone and cortisol by LC-MS/MS, followed by calculation of mean cortisol and percent inhibition of each dosing group. Specifically, male C57BL/6 mice are obtained from Harlan Sprague Dawley at average weight of 25 grams. Exact weights are taken upon arrival and the mice randomized into groups of similar weights. Compounds are prepared in 1% w-w HEC, 0.25% w-w polysorbate 80, 0.05% w-w Dow Corning antifoam #1510-US at various doses based on assumed average weight of 25 grams. Compounds are dosed orally, 200 μl per animal, followed by a subcutaneous dose, 200 μl per animal, of 30 mg/kg cortisone at 1 to 24 hours post compound dose. At 10 minutes post cortisone challenge, each animal is euthanized for 1 minute in a CO2 chamber, followed by blood collection via cardiac puncture into serum separator tubes. Once fully clotted, tubes are spun at 2500×g, 4° C. for 15 minutes, the serum transferred to wells of 96-well plates (Corning Inc, Costar #4410, cluster tubes, 1.2 ml, polypropylene), and the plates are frozen at −20° C. until analysis by LC-MS/MS. […]

T1 sequence (P28845 whole entry): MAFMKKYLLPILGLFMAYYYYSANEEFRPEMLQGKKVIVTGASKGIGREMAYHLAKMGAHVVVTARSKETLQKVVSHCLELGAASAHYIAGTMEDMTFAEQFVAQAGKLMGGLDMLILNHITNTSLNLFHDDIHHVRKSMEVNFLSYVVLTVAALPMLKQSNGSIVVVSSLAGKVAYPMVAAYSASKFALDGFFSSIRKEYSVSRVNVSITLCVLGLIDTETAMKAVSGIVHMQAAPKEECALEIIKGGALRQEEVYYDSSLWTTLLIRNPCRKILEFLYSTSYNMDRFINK

SMILES	IC50 (11β-HSD1) [µM]	% Inhibition after 16 hours (cortisone conversion; dose of 30 mg/kg)	% Inhibition after 16 hours (cortisone conversion; dose of 10 mg/kg)
O=C(c1ccc(-c2cc(Cl)c(CN3CCC(C4CCCCC4)C3=O)c(Cl)c2)cc1)N1CCN(CCF)CC1 (racemic) [Example 5, 3-Cyclohexyl-1-{3,5-dichloro-4′-[4-(2-fluoro-ethyl)-piperazine-1-carbonyl]-biphenyl-4-ylmethyl}-pyrrolidin-2-one]	0.0154	84 (dose of 30 (mg/kg)) %	–
O=C(c1ccc(-c2cc(Cl)c(CN3CCC(N4CCCCC4)C3=O)c(Cl)c2)cc1)N1CCC(C(F)(F)F)CC1 (racemic) [Example 16, 1-[3,5-Dichloro-4′-(4-trifluoromethyl-piperidine-1-carbonyl)-biphenyl-4-ylmethyl]-3-piperidin-1-yl-pyrrolidin-2-one]	0.294	–	38 (dose of 10 (mg/kg)) %
